Three molecules from patent CN109776561A, “化合物cytorhizins B和C及其制备方法和在制备抗肿瘤药物中的应用” (Institute of Microbiology of Guangdong Academy of Sciences, priority 2019, dated 2019) can be followed below.

Common to all, as to format: cell-based
Assay [1] relates to HepG-2 liver cancer cells (肝癌细胞HepG-2). As to the kind of experiment: SRB cytotoxicity assay, HepG-2. Particulars: HepG-2, SRB, 72 h. (In SRB staining, fixed cells bind dye roughly in proportion to their protein.)
Assay [2] has as its system NCI-H460 cells (NCI-H460细胞). As to the kind of experiment: SRB cytotoxicity assay, NCI-H460. The conditions noted are these: 72 h.
Assay [3] deals with MCF-7 breast cancer cells (乳腺癌细胞MCF-7). Briefly: SRB cytotoxicity assay, MCF-7. The conditions noted are these: MCF-7, SRB, 72 h.
Assay [4] concerns SF-268 nerve cancer cells (神经癌细胞SF-268). As to the kind of experiment: SRB cytotoxicity assay, SF-268. Particulars: SF-268, SRB, 72 h.

Take `Cc1cc(O)c2c3c1OC(C)(C)[C@@H](CCl)O[C@]31Oc3cccc(O)c3[C@@]2(O)[C@H]1C` [cytorhizin B]: the IC50 (in general, the concentration that gives 50% inhibition) in assay [1] amounted to 29.4 µM; in assay [2], 32.8 µM; in assay [3], 30.1 µM; in assay [4] it was 34.8 µM.
In the same order, the values of `COC[C@H]1O[C@]23Oc4cccc(O)c4[C@](O)(c4c(O)cc(C)c(c42)OC1(C)C)[C@H]3C` [cytorhizin C] are 68.6 µM, 54.7 µM, 58.6 µM and 36.8 µM.
In the same order, the values of `N.N.[Cl][Pt][Cl]` [顺铂, reference compound] are 2.4 µM, 1.6 µM, 3.2 µM and 3.3 µM.
